Where two headings read alike, the source gives them in different places.
Tests used:
[1] = system: HuH7; assay: MTT assay, HuH7 cells; type: cell-based, human; conditions: Homo sapiens, Huh-7, 48 h, read-out: IC50 HuH7
[2] = system: SMMC-7721; assay: MTT assay, SMMC-7721 cells; type: cell-based, human; conditions: Homo sapiens, SMMC-7721, 48 h, read-out: IC50 SMMC-7721
[3] = system: HCC cell lines (HepG2, HuH7, and SMMC-7721); assay: MTT assay, results stated over the three HCC cell lines; type: cell-based; conditions: Homo sapiens, 48 h, read-out: IC50 against HCC cells (span over cell lines)
[4] = system: LO2; assay: MTT assay, normal hepatocyte LO2; type: cell-based, human
[5] = system: HepG2; assay: MTT assay, HepG2 cells; type: cell-based, human; conditions: Homo sapiens, HepG2, 48 h, read-out: IC50 HepG2
[6] = In vivo PK study; design: species or system Sprague-Dawley (SD) rats
[7] = system: A549-Nur77-/- cells; assay: Cell cycle analysis by flow cytometry, A549 Nur77-/-; type: cell-based, human; conditions: 10 h
[8] = system: HuH7 cells; assay: Cell cycle analysis by flow cytometry, HuH7; type: cell-based, human; conditions: 10 h
[9] = system: HuH7; assay: Colony formation assay, HuH7; type: cell-based, human; conditions: HuH7, one week
[10] = system: HepG2; assay: Colony formation assay, HepG2; type: cell-based, human; conditions: HepG2, one week
[11] = system: HepG2 cells; assay: Cell cycle analysis by flow cytometry, HepG2; type: cell-based, human; conditions: 10 h
[12] = system: cleaved-PARP, LC3-II and Nur77 in HepG2 cells; assay: Western blotting, HepG2 cells; type: cell-based, human
[13] = system: cleaved-PARP and LC3-II in HuH7 cells; assay: Western blotting, HuH7 cells; type: cell-based, human; conditions: HuH7, 24 h
[14] = system: HuH7 cells; assay: Annexin V-FITC/PI apoptosis detection assay, HuH7; type: cell-based, human; conditions: 24 h
[15] = system: HepG2 cells; assay: Annexin V-FITC/PI apoptosis detection assay, HepG2; type: cell-based, human; conditions: HepG2, 1.0 μM, 24 h
[16] = system: transcriptional activity of Nur77 in Hela cells; assay: Dual-luciferase reporter assay; type: cell-based; conditions: 24 h treatment
[17] = Homo sapiens, L02, 48 h, read-out: IC50 LO2, normal liver cell line, MTT, 48 h
[18] = read-out: IC50 LO2, normal liver cell line, MTT, 48 h
[19] = female, Sprague-Dawley, rat, plasma, iv, 2 mg/kg
[20] = female, Sprague-Dawley, rat, plasma, po, 20 mg/kg

In the case of `Cc1cc(Nc2ccc(C(=O)N/N=C/c3ccc4ccccc4c3)cc2)c2cccc(O)c2n1` [7S, (E)-4-((8-hydroxy-2-methylquinolin-4-yl)amino)-N'-(naphthalen-2-ylmethylene)benzohydrazide], the IC50 [1] is reported as 16.2 ± 0.66 µM, the IC50 [2] is reported as 22.3 ± 0.98 µM and the IC50 [3] is reported as 15 to 23.9 µM. The IC50 [4, 17] was > 60 µM, the IC50 [4, 18] was 66.3 ± 8.68 µM and the IC50 [5] was 15.6 ± 1.65 µM.
Work on `COc1ccc(/C=N/NC(=O)c2ccc(Nc3cc(C)nc4c(O)cccc34)cc2)c2ccccc12` [7T, (E)-4-((8-hydroxy-2-methylquinolin-4-yl)amino)-N'-((4-methoxynaphthalen-1-yl)methylene)benzohydrazide] yielded an IC50 [1] of 20.9 ± 2.46 µM, an IC50 [2] of 23.9 ± 2.16 µM and an IC50 [3] of 15 to 23.9 µM. For the same compound, the IC50 [4, 17] was > 60 µM, the IC50 [4, 18] was 60.7 ± 0.98 µM and the IC50 [5] was 15 ± 4.75 µM.
For `Cc1cc(Nc2ccc(C(=O)N/N=C/c3scnc3C)cc2)c2cccc(O)c2n1` [TMHA37, (E)-4-((8-hydroxy-2-methylquinolin-4-yl)amino)-N'-((4-methylthiazol-5-yl)methylene)benzohydrazide], the IC50 [1] was 4.09 ± 0.89 µM, the CL ([6]; SD rats, p.o. 20 mg/kg) was 1986.3 ± 307.2 mL/min/kg and the Vz ([6]; SD rats, p.o. 20 mg/kg) was 192.55 ± 22.13 L/kg. The AUC(0-inf) [6, 19] was 247 ± 72.6 ng·h/mL, the Cmax [6, 19] was 293 ± 45.5 ng/mL and the Tmax [6, 19] was 0.08 h. It also gave a Vd [6, 19] of 22.2 ± 10.1 L/kg, a clearance [6, 19] of 143 mL/min/kg and a half-life [6, 19] of 1.54 ± 0.35 h. For the same compound, the AUC(0-inf) [6, 20] was 170 ± 25.4 ng·h/mL, the Cmax [6, 20] was 19.6 ± 0.97 ng/mL and the Tmax [6, 20] was 5.83 ± 3.75 h. The half-life [6, 20] was 1.13 ± 0.09 h, the “TMHA37-caused G2/M arrest in Nur77-knockdown A549 cells compared to control cells” value [7] was “significantly decreased” and the IC50 [2] was 7.68 ± 1.3 µM. The “cells in G2 (G2/M)” value ([8]; HuH7, TMHA37 1 μM) was 20.07%, the “cells in G2 (G2/M)” value ([8]; HuH7, TMHA37 10 μM) was 48.26% and the colony formation [9] was “significantly and dose-dependently inhibited the colony formation”. For the same compound, the colony formation [10] was “significantly and dose-dependently inhibited the colony formation”, the IC50 [3] was 2.33 to 7.68 µM and the IC50 [4, 17] was 21.2 ± 1.79 µM. The IC50 [5] was 2.33 ± 0.14 µM, the “cells in G2 (G2/M)” value ([11]; HepG2, TMHA37 1 μM) was 26.72% and the “cells in G2 (G2/M)” value ([11]; HepG2, TMHA37 10 μM) was 63.17%. For the same compound, the “Nur77 protein expression in cytoplasm and nucleus” value ([12]; HepG2, 10 μM, 3 h) was “increased the protein expression levels of Nur77 in both cytoplasm and nuclear”, the LC3-II level ([12]; HepG2, 24 h) was “dose-dependently increased the level of LC3-II” and the cleaved-PARP level ([12]; HepG2, 24 h) was “dose-dependent upregulation of cleaved-PARP”. For the same compound, the LC3-II level [13] was “dose-dependently increased the level of LC3-II”, the cleaved-PARP level [13] was “dose-dependent upregulation of cleaved-PARP” and the apoptotic cells ([14]; HuH7, 1.0 μM) was 12.82%. The apoptotic cells ([14]; HuH7, 10.0 μM) was 69.50%, the apoptotic cells [15] was 6.42% and the reporter activity [16] was “significantly increased the reporter fluorescence intensity in a dose-dependent manner”.

From paper PMC10294756 (Journal of Enzyme Inhibition and Medicinal Chemistry, 2023)
